Measured values as given in patent US10988523B2, “Modified lipidated Relaxin B chain peptides and their therapeutic use” (Sanofi, priority 2018, dated 2021).
*1 amine or outer side, *2 acyl side, *3 side chain or, on linkers, in order; H or OH if unused. Where a SMILES comes first, the peptide text is derived from it. Side-chain parts run from the residue outwards. [ ]: non-standard residue; d: D form. The star is where a group is joined. PEG12 = NCCOCCOCCOCCOCCOCCOCCOCCOCCOCCOCCOCCOCCC(=O)O; Lys(Me3) = C[N+](C)(C)CCCC[C@H](N)C(=O)O; γGlu = O=C(O)[C@H](CCC(=O)[*:2])N[*:1]; Stearoyl = CCCCCCCCCCCCCCCCCC(=O)*; Palmitoyl = CCCCCCCCCCCCCCCC(=O)*; Cit = NC(=O)NCCC[C@H](N)C(=O)O; αMeK = C[C@](N)(CCCCN)C(=O)O; Nle = CCCC[C@H](N)C(=O)O; AEEA = NCCOCCOCC(=O)O; Aib = CC(C)(N)C(=O)O

Each molecule was assayed against T1, RXFP1 (Homo sapiens, UniProt Q9HBX9) (assay: OVCAR5 cAMP assay (HTRF), RXFP1 agonist activity). Details: OVCAR-5; maximal cAMP relative to H2-relaxin maximum (100%); read-out: EMax, OVCAR 5 cells (cAMP).
T1 construct: OVCAR5 cells expressing endogenous RXFP1; endogenous in cells; host or cells: OVCAR5 cells
T1 sequence (Q9HBX9 1-757): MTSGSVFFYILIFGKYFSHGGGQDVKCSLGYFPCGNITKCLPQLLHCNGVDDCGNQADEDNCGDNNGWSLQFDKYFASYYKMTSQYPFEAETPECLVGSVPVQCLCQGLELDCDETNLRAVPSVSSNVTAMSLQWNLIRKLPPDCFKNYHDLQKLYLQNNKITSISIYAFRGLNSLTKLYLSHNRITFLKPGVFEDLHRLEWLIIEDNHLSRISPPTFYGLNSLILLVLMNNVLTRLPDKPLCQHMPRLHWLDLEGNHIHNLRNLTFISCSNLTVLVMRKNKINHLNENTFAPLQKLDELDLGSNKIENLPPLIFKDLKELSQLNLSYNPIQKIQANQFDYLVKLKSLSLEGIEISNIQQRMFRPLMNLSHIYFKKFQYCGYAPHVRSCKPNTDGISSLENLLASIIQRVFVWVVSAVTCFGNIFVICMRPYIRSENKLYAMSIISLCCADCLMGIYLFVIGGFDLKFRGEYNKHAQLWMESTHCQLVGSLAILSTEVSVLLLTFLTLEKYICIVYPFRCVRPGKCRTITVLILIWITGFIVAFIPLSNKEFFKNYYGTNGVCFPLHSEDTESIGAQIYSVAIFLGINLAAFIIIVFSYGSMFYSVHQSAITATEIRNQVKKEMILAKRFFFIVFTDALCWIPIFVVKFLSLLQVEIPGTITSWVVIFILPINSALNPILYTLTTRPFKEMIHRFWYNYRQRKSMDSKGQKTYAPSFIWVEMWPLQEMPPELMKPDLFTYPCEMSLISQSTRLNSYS
Assay type: cell-based
Outline: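 OVCAR5 cells (endogenous RXFP1) pretreated 40 min at 37° C with 1 mM IBMX, then exposed to peptides in serum-free medium for 30 min at 37° C. Lysate cAMP read by HTRF; EC50 from variable-slope sigmoidal fit; Emax as % of H2-relaxin maximal cAMP in same run.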

| Structure (SMILES) | Emax [%] |
| --- | --- |
| CCCCCCCCCCCCCCCCCC(=O)N[C@@H](CCC(=O)N[C@@H](CCC(=O)N[C@@H](CCC(=O)NCCOCCOCC(=O)NCCOCCOCC(=O)NCCCC[C@H](NC(=O)[C@H](CCCCN)NC(=O)[C@H](CCCNC(=N)N)NC(=O)C(C)(C)NC(=O)[C@H](CO)NC(=O)[C@H](Cc1c[nH]c2ccccc12)NC(=O)[C@@H](NC(=O)[C@H](CO)NC(=O)[C@H](CCCC)NC(=O)CNC(=O)[C@H](CCC(=O)O)NC(=O)C(C)(C)NC(=O)C(C)(C)NC(=O)[C@@H](NC(=O)[C@H](CCC(N)=O)NC(=O)[C@H](C)NC(=O)[C@H](CCCNC(=N)N)NC(=O)[C@@H](NC(=O)[C@H](CCCCN)NC(=O)[C@H](CCC(=O)O)NC(=O)[C@H](CCCNC(=N)N)NC(=O)CNC(=O)[C@H](CCC(=O)O)NC(=O)[C@H](CC(C)C)NC(C)=O)C(C)C)[C@@H](C)CC)[C@@H](C)O)C(N)=O)C(=O)O)C(=O)O)C(=O)O [compound 67] (Ac-LEGREKVRAQI[Aib][Aib]EG[Nle]STWS[Aib]RKK([AEEA-AEEA-γGlu-γGlu-γGlu-Stearoyl])-NH2) | 89 |
| CCCCCCCCCCCCCCCCCC(=O)N[C@@H](CCC(=O)N[C@@H](CCC(=O)N[C@@H](CCC(=O)NCCOCCOCC(=O)NCCOCCOCC(=O)NCCCC[C@H](NC(=O)[C@H](CCCCN)NC(=O)[C@H](CCCCN)NC(=O)[C@H](CCCNC(=N)N)NC(=O)C(C)(C)NC(=O)[C@H](CO)NC(=O)[C@H](Cc1c[nH]c2ccccc12)NC(=O)[C@@H](NC(=O)[C@H](CO)NC(=O)[C@H](CCC(N)=O)NC(=O)CNC(=O)[C@H](CCC(=O)O)NC(=O)C(C)(C)NC(=O)C(C)(C)NC(=O)[C@@H](NC(=O)[C@H](CCC(N)=O)NC(=O)[C@H](C)NC(=O)[C@H](CCCNC(=N)N)NC(=O)[C@@H](NC(=O)[C@H](CCCCN)NC(=O)[C@H](CCC(=O)O)NC(=O)[C@H](CCCNC(=N)N)NC(=O)CNC(=O)[C@H](CCC(=O)O)NC(=O)[C@H](CC(C)C)NC(C)=O)C(C)C)[C@@H](C)CC)[C@@H](C)O)C(N)=O)C(=O)O)C(=O)O)C(=O)O [compound 70] (Ac-LEGREKVRAQI[Aib][Aib]EGQSTWS[Aib]RKKK([AEEA-AEEA-γGlu-γGlu-γGlu-Stearoyl])-NH2) | 86 |
| CCCCCCCCCCCCCCCC(=O)N[C@@H](CCC(=O)N[C@@H](CCC(=O)N[C@@H](CCC(=O)N[C@@H](CCC(=O)NCCOCCOCC(=O)NCCOCCOCC(=O)NCCOCCOCC(=O)NCCOCCOCC(=O)NCCCC[C@H](NC(=O)[C@H](CCCCNC(C)=O)NC(=O)[C@H](CCCCN)NC(=O)[C@H](CCCNC(=N)N)NC(=O)C(C)(C)NC(=O)[C@H](CO)NC(=O)[C@H](Cc1c[nH]c2ccccc12)NC(=O)[C@@H](NC(=O)[C@H](CO)NC(=O)[C@H](CCCC)NC(=O)CNC(=O)[C@H](CCC(=O)O)NC(=O)C(C)(C)NC(=O)C(C)(C)NC(=O)[C@@H](NC(=O)[C@H](CCCCNC(C)=O)NC(=O)[C@H](C)NC(=O)[C@H](CCCNC(=N)N)NC(=O)[C@@H](NC(=O)[C@H](CCCCN)NC(=O)[C@H](CCC(=O)O)NC(=O)[C@H](CCCNC(=N)N)NC(=O)CNC(=O)[C@H](CCC(=O)O)NC(=O)[C@H](CC(C)C)NC(C)=O)C(C)C)[C@@H](C)CC)[C@@H](C)O)C(N)=O)C(=O)O)C(=O)O)C(=O)O)C(=O)O [compound 130] (Ac-LEGREKVRAK(Ac)I[Aib][Aib]EG[Nle]STWS[Aib]RKK(Ac)K([AEEA-AEEA-AEEA-AEEA-γGlu-γGlu-γGlu-γGlu-Palmitoyl])-NH2) | 93 |
| CCCCCCCCCCCCCCCCCC(=O)N[C@@H](CCC(=O)N[C@@H](CCC(=O)N[C@@H](CCC(=O)NCCOCCOCCOCCOCCOCCOCCOCCOCCOCCOCCOCCOCCC(=O)NCCCC[C@H](NC(=O)[C@H](CCCCN)NC(=O)[C@H](CCCCN)NC(=O)[C@H](CCCNC(=N)N)NC(=O)C(C)(C)NC(=O)[C@H](CO)NC(=O)[C@H](Cc1c[nH]c2ccccc12)NC(=O)[C@@H](NC(=O)[C@H](CO)NC(=O)[C@H](CCCC)NC(=O)CNC(=O)[C@H](CCC(=O)O)NC(=O)C(C)(C)NC(=O)C(C)(C)NC(=O)[C@@H](NC(=O)[C@H](CCC(N)=O)NC(=O)[C@H](C)NC(=O)[C@H](CCCNC(=N)N)NC(=O)[C@@H](NC(=O)[C@H](CCCCN)NC(=O)[C@H](CCC(=O)O)NC(=O)[C@H](CCCNC(=N)N)NC(=O)CNC(=O)[C@H](CCC(=O)O)NC(=O)[C@H](CC(C)C)NC(C)=O)C(C)C)[C@@H](C)CC)[C@@H](C)O)C(N)=O)C(=O)O)C(=O)O)C(=O)O [compound 97] (Ac-LEGREKVRAQI[Aib][Aib]EG[Nle]STWS[Aib]RKKK([PEG12-γGlu-γGlu-γGlu-Stearoyl])-NH2) | 98 |
| CCCCCCCCCCCCCCCCCC(=O)N[C@@H](CCC(=O)N[C@@H](CCC(=O)N[C@@H](CCC(=O)NCCOCCOCC(=O)NCCOCCOCC(=O)NCCOCCOCC(=O)NCCOCCOCC(=O)NCCCC[C@H](NC(=O)[C@H](CCCCNC(C)=O)NC(=O)[C@H](C)NC(=O)[C@H](CCCNC(N)=O)NC(=O)[C@](C)(CCCCN)NC(=O)[C@H](CO)NC(=O)[C@H](Cc1c[nH]c2ccccc12)NC(=O)[C@@H](NC(=O)[C@H](CO)NC(=O)[C@H](CCCC)NC(=O)CNC(=O)[C@H](CCC(=O)O)NC(=O)C(C)(C)NC(=O)C(C)(C)NC(=O)[C@@H](NC(=O)[C@H](CCCCNC(C)=O)NC(=O)[C@H](C)NC(=O)[C@H](CCCNC(=N)N)NC(=O)[C@@H](NC(=O)[C@H](CCCCN)NC(=O)[C@H](CCC(=O)O)NC(=O)[C@H](CCCNC(=N)N)NC(=O)CNC(=O)[C@H](CCC(=O)O)NC(=O)[C@H](CC(C)C)NC(C)=O)C(C)C)[C@@H](C)CC)[C@@H](C)O)C(N)=O)C(=O)O)C(=O)O)C(=O)O [compound 132] (Ac-LEGREKVRAK(Ac)I[Aib][Aib]EG[Nle]STWS[αMeK][Cit]AK(Ac)K([AEEA-AEEA-AEEA-AEEA-γGlu-γGlu-γGlu-Stearoyl])-NH2) | 87 |
| CCCCCCCCCCCCCCCCCC(=O)N[C@@H](CCC(=O)N[C@@H](CCC(=O)N[C@@H](CCC(=O)NCCOCCOCC(=O)NCCOCCOCC(=O)NCCOCCOCC(=O)NCCCC[C@H](NC(=O)[C@H](CCCCNC(C)=O)NC(=O)[C@H](CCCC[N+](C)(C)C)NC(=O)[C@H](CCCNC(=N)N)NC(=O)C(C)(C)NC(=O)[C@H](CO)NC(=O)[C@H](Cc1c[nH]c2ccccc12)NC(=O)[C@@H](NC(=O)[C@H](CO)NC(=O)[C@H](CCCC)NC(=O)CNC(=O)[C@H](CCC(=O)O)NC(=O)C(C)(C)NC(=O)C(C)(C)NC(=O)[C@@H](NC(=O)[C@H](CCCCNC(C)=O)NC(=O)[C@H](C)NC(=O)[C@H](CCCNC(=N)N)NC(=O)[C@@H](NC(=O)[C@H](CCCCN)NC(=O)[C@H](CCC(=O)O)NC(=O)[C@H](CCCNC(=N)N)NC(=O)CNC(=O)[C@H](CCC(=O)O)NC(=O)[C@H](CC(C)C)NC(C)=O)C(C)C)[C@@H](C)CC)[C@@H](C)O)C(N)=O)C(=O)O)C(=O)O)C(=O)O [compound 134] (Ac-LEGREKVRAK(Ac)I[Aib][Aib]EG[Nle]STWS[Aib]R[Lys(Me3)]K(Ac)K([AEEA-AEEA-AEEA-γGlu-γGlu-γGlu-Stearoyl])-NH2) | 100 |
| CCCCCCCCCCCCCCCC(=O)N[C@@H](CCC(=O)N[C@@H](CCC(=O)N[C@@H](CCC(=O)NCCOCCOCC(=O)NCCOCCOCC(=O)NCCOCCOCC(=O)NCCCC[C@H](NC(=O)[C@H](CCCCNC(C)=O)NC(=O)[C@H](CCCCN)NC(=O)[C@H](CCCNC(=N)N)NC(=O)C(C)(C)NC(=O)[C@H](CO)NC(=O)[C@H](Cc1ccc(O)cc1)NC(=O)[C@@H](NC(=O)[C@H](CO)NC(=O)[C@H](CCC(N)=O)NC(=O)CNC(=O)[C@H](CCC(=O)O)NC(=O)C(C)(C)NC(=O)C(C)(C)NC(=O)[C@@H](NC(=O)[C@H](CCCCNC(C)=O)NC(=O)[C@H](C)NC(=O)[C@H](CCCNC(=N)N)NC(=O)[C@@H](NC(=O)[C@H](CCCCN)NC(=O)[C@H](CCC(=O)O)NC(=O)[C@H](CCCNC(=N)N)NC(=O)CNC(=O)[C@H](CCC(=O)O)NC(=O)[C@H](CC(C)C)NC(C)=O)C(C)C)[C@@H](C)CC)[C@@H](C)O)C(N)=O)C(=O)O)C(=O)O)C(=O)O [compound 44] (Ac-LEGREKVRAK(Ac)I[Aib][Aib]EGQSTYS[Aib]RKK(Ac)K([AEEA-AEEA-AEEA-γGlu-γGlu-γGlu-Palmitoyl])-NH2) | 75 |
